# Experimental data published in patent US7153863B2, “Therapeutic compounds based on pyrazolopyridline derivatives” (SmithKline Beecham Corporation, priority 2002, dated 2006).
# Test system: HSV-1
# Assay: HSV-1 infection of Vero 76 cells, HSV DNA hybridization capture assay
# Format: cell-based, herpes simplex virus 1
# Settings: Human alphaherpesvirus 1; HSV-1 (MOI=0.001) in Vero 76 cells, 40–48 hours at 37° C., viral DNA by hybridization/chemiluminescence
# Description: Vero 76 cells were maintained in MEM with Earle's salts, L-glutamine, 8% FBS (Hyclone, A-1111-L) and 100 units/mL Penicillin-100 μg/mL Streptomycin. For assay conditions, FBS was reduced to 2%. Cells are seeded into 96-well tissue culture plates at a density of 5×10^4 cells/well after being incubated for 45 min at 37° C. in the presence of HSV-1 or HSV-2 (MOI=0.001). Test compounds are added to the wells and the plates are incubated at 37° C. for 40–48 hours. Cell lysates are prepared as follows: media was removed and replaced with 150 μL/well 0.2 N NaOH with 1% Igepal CA 630 or NP-40. Plates were incubated up to 14 days at room temperature in a humidified chamber to prevent evaporation.
# For the detection probe, a gel-purified, digoxigenin-labeled, […] PCR fragment of the HSV UL-15 sequence was utilized. PCR conditions included 0.5 μM primers, 180 μM dTP, 20 μM dUTP-digoxigenin (Boehringer Mannheim 1558706), 200 μM each of dATP, dCTP, and dGTP, 1×PCR Buffer II (Perkin Elmer), 2.5 mM MgCl2, 0.025 units/μL of AmpliTaq Gold polymerase (Perkin Elmer), and 5 ng of gel-purified HSV DNA per 100 μL Extension conditions were 10 min at 95° C., followed by 30 cycles of 95° C. for 1 min, 55° C. for 30 sec, and 72° C. for 2 min. The amplification was completed with a 10-min incubation at 72° C. Primers were selected to amplify a 728 bp probe spanning a section of the HSV1 UL15 open reading frame (nucleotides 249–977). Single-stranded transcripts were purified with Promega M13 Wizard kits. The final product was mixed 1:1 with a mixture of 6 M GuSCN, 100 mM EDTA and 200 μg/mL herring sperm DNA and stored at 4° C.
# The capture DNA plasmid (HSV UL13 region in pUC) was linearized by cutting with Xba I, denatured for 15 min at 95° C. and diluted immediately into Reacti-Bind DNA Coating Solution (Pierce, 17250, diluted 1:1 with TE buffer, pH 8) at 1 ng/μL 75 μL/well were added to Corning (#3922 or 9690) white 96-well plates and incubated at room temperature for at least 4 hrs before washing twice with 300 μL/well 0.2×SSC/0.05% Tween-20 (SSC/T buffer). The plates were then incubated overnight at room temperature with 150 μL/well 0.2 N NaOH, 1% IGEPAL and 10 μg/mL herring sperm DNA.
# Twenty-seven (27) μL of cell lysate was combined with 45 μL of hybridization solution (final concentration: 3M GuSCN, 50 mM EDTA, 100 μg/ml salmon sperm DNA, 5× Denhardt's solution, 0.25×APE, and 5 ng of the digoxigenin-labeled detection probe). APE is 1.5 M NH4-acetate, 0.15 M ammonium phosphate monobasic, and 5 mM EDTA adjusted to pH 6.0. Mineral oil (50 μL) was added to prevent evaporation. The hybridization plates were incubated at 95° C. for 10 minutes to denature the DNA, then incubated at 42° C. overnight. The wells were washed 6× with 300 μL/well SSC/T buffer then incubated with 75 μL/well anti-digoxigenin-HRP-conjugated antibody (Boehringer Mannheim 1207733, 1:5000 in TE) for 30 min at room temperature. The wells were washed 6× with 300 μL/well with PBS/0.05% Tween-20 before 75 μL/well SuperSignal LBA substrate (Pierce) was added. The plates were incubated at room temperature for 30 minutes and chemiluminescence was measured in a Wallac Victor reader.
# The following results were obtained for HSV-1.
smiles,measurement,value
"c1cc(NC2CCCC2)n2nc(C3CC3)c(-c3ccnc(NC4CCCC4)n3)c2c1 [Example 36, N-Cyclopentyl-3-[2-(cyclopentylamino)pyrimidin-4-yl]-2-cyclopropylpyrazolo[1,5-a]pyridin-7-amine]",IC50,900 nM
